In patent publication US20240252488A1 (KOREA RESEARCH INSTITUTE OF CHEMICAL TECHNOLOGY, priority 2020, published 2024):

Tests used:
[1] = tested on: FADD−/− Jurkat cells; assay: Necroptosis inhibition assay, TNF-α-induced necroptosis (CellTiter-Glo 2.0); type: cell-based, human; conditions: TNF-α 15 ng/mL; for Necroptosis inhibition assay (Rescue %) 1 μM: compound 1 μM; for Necroptosis inhibition assay (Rescue %) 10 μM: compound 10 μM
Procedure, shortened: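 Compound is added to cells at final concentrations of 0.1, 1 and 10 μM and left 30 minutes at room temperature. Necroptosis is induced with 15 ng/mL TNF-α, culture continues 20 to 24 hours at 37° C, and ATP-based luminescence reports viability.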

[2] = target: T1, MLKL (Homo sapiens, UniProt Q8NB16); assay: MLKL degradation assay in HepG2 cell line (western blot); type: cell-based; parameters: endogenous in cells; host or cells: HepG2 or HaCaT; conditions: cell line not given; for Degradation assay (Degradation %) 1 μM: compound 1 μM; for Degradation assay (Degradation %) 10 μM: compound 10 μM
T1 sequence (Q8NB16 1-471): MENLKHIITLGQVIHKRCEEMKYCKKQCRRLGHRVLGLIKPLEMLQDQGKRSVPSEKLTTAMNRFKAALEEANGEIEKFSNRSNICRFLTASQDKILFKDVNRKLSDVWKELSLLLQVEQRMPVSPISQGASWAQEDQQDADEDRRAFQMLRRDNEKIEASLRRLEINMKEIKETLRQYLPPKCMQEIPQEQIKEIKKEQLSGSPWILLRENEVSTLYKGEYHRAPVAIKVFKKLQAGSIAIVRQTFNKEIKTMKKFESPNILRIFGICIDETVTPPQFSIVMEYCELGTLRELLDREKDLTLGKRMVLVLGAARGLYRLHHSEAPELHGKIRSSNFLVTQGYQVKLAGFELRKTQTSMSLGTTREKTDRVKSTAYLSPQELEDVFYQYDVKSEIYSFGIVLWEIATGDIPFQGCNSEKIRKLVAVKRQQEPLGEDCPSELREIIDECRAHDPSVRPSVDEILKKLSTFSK
Procedure, shortened: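 Chemiluminescent western blot signal reports remaining MLKL protein in HepG2 cells after 20-24 h treatment with compound at a final 1 or 10 μM. Equal protein (10-15 μg, BCA) is loaded per lane.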

[3] = target: T1, MLKL; assay: Measurement of binding affinity with MLKL receptor (competitive binding assay, Kd); parameters: made in house; host or cells: HEK 293 cell line (T7 phage in E. coli BL21-derived host is also described)
Procedure, shortened: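 Kd from an immobilized-ligand competition format: the DNA-tagged kinase from HEK 293 expression is eluted and quantified by qPCR. Compounds added from 111× DMSO stocks, final DMSO 0.9%.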

Row | Degradation assay (Degradation %) 1 μM [2] | Degradation assay (Degradation %) 10 μM [2] | Kd [3] | Compound | Necroptosis inhibition assay (Rescue %) 1 μM [1] | Necroptosis inhibition assay (Rescue %) 10 μM [1] | Necroptosis inhibition assay (Rescue %) 1 μM ([1]; FADD−/− Jurkat cells) | Necroptosis inhibition assay (Rescue %) 10 μM ([1]; FADD−/− Jurkat cells) | Necroptosis inhibition assay (Rescue %) 1.1 μM ([1]; compound 1.1 µM)
1 | 32.16% | 27.8% | 4.9 nM | Nc1ncc(-c2cnn(C3CCN(CC4CCN(CC(=O)NC5CCN(c6cccc7c6C(=O)N(C6CCC(=O)NC6=O)C7=O)CC5)CC4)CC3)c2)nc1C(=O)OC(C(=O)Nc1ccc(F)cc1)c1ccccc1 (stereo not shown) [TDH-236, 2-((4-fluorophenyl)amino)-2-oxo-1-phenylethyl 3-amino-6-(1-(1-((1-(2-((1-(2-(2,6-dioxopiperidin-3-yl)-1,3-dioxoisoindolin-4-yl)piperidin-4-yl)amino)-2-oxoethyl)piperidin-4-yl)methyl)piperidin-4-yl)-1H-pyrazol-4-yl)pyrazine-2-carboxylate] | 42.35% | 46.48% |  |  | 
2 | 33.12% | 18.24% | 6.7 nM | Nc1ncc(-c2cnn(C3CCN(C(=O)COCCOCCNC(=O)C4CCN(c5cccc6c5C(=O)N(C5CCC(=O)NC5=O)C6=O)CC4)CC3)c2)nc1C(=O)O[C@@H](C(=O)Nc1ccc(F)cc1)c1ccccc1 (stereo partly drawn) [TDH-194, (R)-2-((4-fluorophenyl)amino)-2-oxo-1-phenylethyl 3-amino-6-(1-(1-(2-(2-(2-(1-(2-(2,6-dioxopiperidin-3-yl)-1,3-dioxoisoindolin-4-yl)piperidine-4-carboxamido)ethoxy)ethoxy)acetyl)piperidin-4-yl)-1H-pyrazol-4-yl)pyrazine-2-carboxylate] | 67.94% | 58.3% |  |  | 
3 | 89.95% | 82.82% | 0.61 nM | Nc1ncc(-c2cnn(C3CCN(CCC4CCN(C(=O)CCc5ccc6c(c5)C(=O)N(C5CCC(=O)NC5=O)C6=O)CC4)CC3)c2)nc1C(=O)O[C@@H](C(=O)Nc1ccc(F)cc1)c1ccccc1 (stereo partly drawn) [TDH-377, (R)-2-((4-fluorophenyl)amino)-2-oxo-1-phenylethyl 3-amino-6-(1-(1-(2-(1-(3-(2-(2,6-dioxopiperidin-3-yl)-1,3-dioxoisoindolin-5-yl)propanoyl)piperidin-4-yl)ethyl)piperidin-4-yl)-1H-pyrazol-4-yl)pyrazine-2-carboxylate] | 62.50% | 27.37% |  |  | 
4 | 34.07% | 23.76% | 22 nM | Nc1ncc(-c2cnn(C3CCN(CCCCCCCCCCNC(=O)COc4ccc5nnn(C6CCC(=O)NC6=O)c(=O)c5c4)CC3)c2)nc1C(=O)O[C@@H](C(=O)Nc1ccc(F)cc1)c1ccccc1 (stereo partly drawn) [TDH-176, (R)-2-((4-fluorophenyl)amino)-2-oxo-1-phenylethyl 3-amino-6-(1-(1-(10-(2-((3-(2,6-dioxopiperidin-3-yl)-4-oxo-3,4-dihydrobenzo[d][1,2,3]triazin-6-yl)oxy)acetamido)decyl)piperidin-4-yl)-1H-pyrazol-4-yl)pyrazine-2-carboxylate] | 44.28% | 35.42% |  |  | 
5 | 95.21% | 89.06% | 1.4 nM | COc1ccc(C(=O)N2CCC(C(=O)N3CCC(CN4CCC(n5cc(-c6cnc(N)c(C(=O)O[C@@H](C(=O)Nc7ccc(F)cc7)c7ccccc7)n6)cn5)CC4)CC3)CC2)cc1N1CCC(=O)NC1=O [TDH-515, (R)-2-((4-fluorophenyl)amino)-2-oxo-1-phenylethyl 3-amino-6-(1-(1-((1-(1-(3-(2,4-dioxotetrahydropyrimidin-1(2H)-yl)-4-methoxybenzoyl)piperidine-4-carbonyl)piperidin-4-yl)methyl)piperidin-4-yl)-1H-pyrazol-4-yl)pyrazine-2-carboxylate] |  |  | 68.04% | 15.68% | 
6 | 92.98% | 85.17% | 1.7 nM | Nc1ncc(-c2cnn([C@@H]3CCN(CC4CCN(C(=O)COc5ccc6c(c5)C(=O)N(C5CCC(=O)NC5=O)C6=O)CC4)C3)c2)nc1C(=O)O[C@@H](C(=O)Nc1ccc(F)cc1)c1ccccc1 (stereo partly drawn) [TDH-359, (R)-2-((4-fluorophenyl)amino)-2-oxo-1-phenylethyl 3-amino-6-(1-((3R)-1-((1-(2-((2-(2,6-dioxopiperidin-3-yl)-1,3-dioxoisoindolin-5-yl)oxy)acetyl)piperidin-4-yl)methyl)pyrrolidin-3-yl)-1H-pyrazol-4-yl)pyrazine-2-carboxylate] |  | 40.02% |  |  | 67.68 (1.1 µM) %
7 | 86.88% | 95.41% | 1.5 nM | Nc1ncc(-c2cnn(C3CCN(C(=O)C4CCN(C(=O)CCc5cccc6c5C(=O)N(C5CCC(=O)NC5=O)C6=O)CC4)CC3)c2)nc1C(=O)O[C@@H](C(=O)Nc1ccc(F)cc1)c1ccccc1 (stereo partly drawn) [TDH-380, (R)-2-((4-fluorophenyl)amino)-2-oxo-1-phenylethyl 3-amino-6-(1-(1-(1-(3-(2-(2,6-dioxopiperidin-3-yl)-1,3-dioxoisoindolin-4-yl)propanoyl)piperidine-4-carbonyl)piperidin-4-yl)-1H-pyrazol-4-yl)pyrazine-2-carboxylate] | 38.37% | 35.96% |  |  | 
8 | 24.89% | 66.48% | 0.25 nM | Nc1ncc(-c2cnn(C3CCN(CCOC4CCN(C(=O)C5CCN(C6=CC(=O)N(C7CCC(=O)NC7=O)C6=O)CC5)CC4)CC3)c2)nc1C(=O)O[C@@H](C(=O)Nc1ccc(F)cc1)c1ccccc1 (stereo partly drawn) [TDH-529, (R)-2-((4-fluorophenyl)amino)-2-oxo-1-phenylethyl 3-amino-6-(1-(1-(2-((1-(1-(1-(2,6-dioxopiperidin-3-yl)-2,5-dioxo-2,5-dihydro-1H-pyrrol-3-yl)piperidine-4-carbonyl)piperidin-4-yl)oxy)ethyl)piperidin-4-yl)-1H-pyrazol-4-yl)pyrazine-2-carboxylate] |  |  | 36.72% | 15.86% | 
9 | 12.94% | 42.92% | 2.1 nM | Nc1ncc(-c2cnn(C3CCN(CCOCCOCCNC(=O)CNc4cccc5c4C(=O)N(C4CCC(=O)NC4=O)C5=O)CC3)c2)nc1C(=O)O[C@@H](C(=O)Nc1ccc(F)cc1)c1ccccc1 (stereo partly drawn) [TDH-102, (R)-2-((4-fluorophenyl)amino)-2-oxo-1-phenylethyl 3-amino-6-(1-(1-(2-(2-(2-(2-((2-(2,6-dioxopiperidin-3-yl)-1,3-dioxoisoindolin-4-yl)amino)acetamido)ethoxy)ethoxy)ethyl)piperidin-4-yl)-1H-pyrazol-4-yl)pyrazine-2-carboxylate] | 39.17% | 42.99% |  |  | 
10 | 24.54% | 19.24% | 2.3 nM | Nc1ncc(-c2cnn(C3CCN(CCCCCCNC(=O)C4CN(c5cccc6c5C(=O)N(C5CCC(=O)NC5=O)C6=O)C4)CC3)c2)nc1C(=O)O[C@@H](C(=O)Nc1ccc(F)cc1)c1ccccc1 (stereo partly drawn) [TDH-113, (R)-2-((4-fluorophenyl)amino)-2-oxo-1-phenylethyl 3-amino-6-(1-(1-(6-(1-(2-(2,6-dioxopiperidin-3-yl)-1,3-dioxoisoindolin-4-yl)azetidine-3-carboxamido)hexyl)piperidin-4-yl)-1H-pyrazol-4-yl)pyrazine-2-carboxylate] | 24.96% | 5.16% |  |  | 
11 | 84.23% | 86.93% | 0.52 nM | Nc1ncc(-c2cnn(C3CCN(C4CC5(CCN(CC6CCN(C(=O)CNc7ccc8c(c7)C(=O)N(C7CCC(=O)NC7=O)C8=O)CC6)CC5)C4)CC3)c2)nc1C(=O)O[C@@H](C(=O)Nc1ccc(F)cc1)c1ccccc1 (stereo partly drawn) [TDH-443, (R)-2-((4-fluorophenyl)amino)-2-oxo-1-phenylethyl 3-amino-6-(1-(1-(7-((1-((2-(2,6-dioxopiperidin-3-yl)-1,3-dioxoisoindolin-5-yl)glycyl)piperidin-4-yl)methyl)-7-azaspiro[3.5]nonan-2-yl)piperidin-4-yl)-1H-pyrazol-4-yl)pyrazine-2-carboxylate] |  |  | 59.05% | −65.46% | 
